One experiment relates to Trypanosoma brucei. Briefly: Antitrypanosomal activity against Trypanosoma brucei 427 bloodstream forms assessed as inhibition of parasite growth incubated for 48 hrs by Alamar blue assay. In kind it is functional, organism-based. Particulars: Trypanosoma brucei, 427, 48 h. For orientation: The colour change of resazurin is a common sign of viable cells or microbes.
A further experiment has as its system L6. In words: Cytotoxic activity against rat L6 cells assessed as reduction in cell viability incubated for 6 days by Alamar blue assay. Format: cell-based. Particulars: L6, 144 h.
For experiment [1], the system named is Mycobacterium tuberculosis. In words: Antimycobacterial activity against Mycobacterium tuberculosis H37Rv assessed as inhibition of parasite growth incubated for 6 days by REMA method. In kind it is functional. Conditions: 144 h.
Experiment [2] deals with Mycobacterium tuberculosis. Briefly: Antimycobacterial activity against […] assessed as inhibition of parasite growth incubated for 6 days by REMA method. In kind it is functional.
Experiment [3] concerns Mycobacterium tuberculosis. In words: Antimycobacterial activity against Mycobacterium tuberculosis assessed as inhibition of parasite growth at 1 ug/ml incubated for 6 days by REMA method relative to untreated control. Format: functional. Particulars: 144 h.

In brackets after ≈: the same amount, converted by molar mass.

For `CN1CCN(CCOc2ccc(C3(c4ccc(OCCN5CCN(C)CC5)cc4)C4CC5CC(C4)CC3C5)cc2)CC1`, the values for the 50% inhibitory concentration (IC50) in the experiment on Trypanosoma brucei and with L6 were 0.051 µM and 0.33 µM, respectively. In addition, in the experiment with Trypanosoma brucei, the IC90 turned out to be 0.07 µM. Besides, the minimal inhibitory concentration (MIC) in experiment [1] amounted to 4.59 µM (≈ 2.63 µg/mL). In experiment [2], the Imax stood at 100%. The inhibition at 1 µg/mL in experiment [3] worked out at 0.04%.
With `CCCCCCNCC(O)COc1ccc(C23CC4CC(C2)CC(c2ccc(OCC(O)CNCCCCCC)cc2)(C4)C3)cc1` (stereo not given), in the experiment on Trypanosoma brucei, the IC50 stood at 0.205 µM and the concentration for an effect of 90% (IC90) stood at 0.272 µM. The half-inhibitory concentration (IC50) in the experiment with L6 came to 0.45 µM. Also, the MIC in experiment [1] turned out to be 0.084 µM (≈ 0.0533 µg/mL). Besides, the Imax in experiment [2] is on record as 0%. Also, the inhibition at 1 µg/mL in experiment [3] was found to be 0%.
With `CN(C)CC(O)COc1ccc(C23CC4CC(C2)CC(c2ccc(OCC(O)CN(C)C)cc2)(C4)C3)cc1` (stereo not given), in the experiment with Trypanosoma brucei, the concentration for half-maximal inhibition (IC50) was 0.171 µM and the 90% effect concentration (IC90) is 0.235 µM. The IC50 with L6 was 0.29 µM.
As to `OC(COc1ccc(C23CC4CC(C2)CC(c2ccc(OCC(O)CN5CCCCC5)cc2)(C4)C3)cc1)CN1CCCCC1` (stereo not given), in the experiment with Trypanosoma brucei, the IC50 stood at 0.25 µM and the 90% effect concentration (IC90) is 0.292 µM. Besides, in the experiment with L6, the 50% inhibitory concentration (IC50) amounted to 0.27 µM. The minimum inhibitory concentration (MIC) in experiment [1] is 10.4 µM (≈ 6.27 µg/mL). Moreover, the Imax in experiment [2] stood at 99%. Moreover, the inhibition at 1 µg/mL in experiment [3] was found to be 0.17%.
Turning to `CCCCNCC(O)COc1ccc(C23CC4CC(C2)CC(c2ccc(OCC(O)CNCCCC)cc2)(C4)C3)cc1` (stereo not given), in the experiment with Trypanosoma brucei, the 50% inhibitory concentration (IC50) came out at 0.093 µM and the IC90 came out at 0.11 µM. Moreover, the IC50 with L6 came to 0.55 µM. Besides, in experiment [1], the MIC is 4.14 µM (≈ 2.4 µg/mL). For the same compound, the Imax in experiment [2] came out at 100%. Besides, the inhibition at 1 µg/mL in experiment [3] came out at 50%.
For the compound `CN1CCN(CC(O)COc2ccc(C34CC5CC(C3)CC(c3ccc(OCC(O)CN6CCN(C)CC6)cc3)(C5)C4)cc2)CC1` (stereo not given), in the experiment with Trypanosoma brucei, the half-maximal inhibitory concentration (IC50) amounted to 0.176 µM and the IC90 came to 0.207 µM. The IC50 in the experiment on L6 came to 0.26 µM. The MIC in experiment [1] is 20.5 µM (≈ 13 µg/mL). Also, in experiment [2], the Imax is on record as 95%. Also, the inhibition at 1 µg/mL in experiment [3] is 5%.
In the case of `OCCN(CCO)CC(O)COc1ccc(C2(c3ccc(OCC(O)CN(CCO)CCO)cc3)C3CC4CC(C3)CC2C4)cc1` (stereo not given), in experiment [1], the MIC was found to be 24.3 µM (≈ 15.6 µg/mL).
Take `CN1CCN(CC(O)COc2ccc(C3(c4ccc(OCC(O)CN5CCN(C)CC5)cc4)C4CC5CC(C4)CC3C5)cc2)CC1` (stereo not given): the values for the IC50 in the experiment with Trypanosoma brucei and in the experiment on L6 were 0.114 µM and 0.54 µM, respectively. Also, the concentration for an effect of 90% (IC90) with Trypanosoma brucei stood at 0.138 µM. Moreover, the MIC in experiment [1] came to 8.5 µM (≈ 5.38 µg/mL).
As for `CC[C@@H](CO)NCCN[C@@H](CC)CO` [ETHAMBUTOL], the minimal inhibitory concentration (MIC) in experiment [1] was found to be 0.11 µM (≈ 0.0225 µg/mL). The Imax in experiment [2] is listed as 0%. Further, in experiment [3], the inhibition at 1 µg/mL came out at 0%.
With `CSc1ccc(OCc2ncc([N+](=O)[O-])n2C)cc1` [FEXINIDAZOLE], in the experiment with Trypanosoma brucei, the half-inhibitory concentration (IC50) is 1 µM.
Consider `CO[C@H]1/C=C/O[C@@]2(C)Oc3c(C)c(O)c4c(O)c(c(/C=N/N5CCN(C)CC5)c(O)c4c3C2=O)NC(=O)/C(C)=C\C=C\[C@H](C)[C@H](O)[C@@H](C)[C@@H](O)[C@@H](C)[C@H](OC(C)=O)[C@@H]1C` [RIFAMPIN], for which the MIC in experiment [1] came out at 0.001 µM (≈ 0.000823 µg/mL). The Imax in experiment [2] is listed as 54%. In addition, in experiment [3], the inhibition at 1 µg/mL is 13%.

One may read the IC50 as the point on the concentration scale where inhibition reaches its midpoint. The term IC90 denotes the concentration needed for an effect of 90%. A word on the MIC: it is the least concentration at which growth counts as inhibited. A word on the inhibition: it is how much of the control response was suppressed.

Source of the values: ChEMBL document CHEMBL4392856, “Synthesis of diphenoxyadamantane alkylamines with pharmacological interest” (Bioorg Med Chem Lett, 2019).
